{"source": "patent US10350272B2", "about": "“Calcitonin analogues for treating diseases and disorders” (KeyBioscience AG, priority 2015, dated 2019)", "assay_type_in_all_cases": "in vivo, rat", "key": {"[1]": {"system": "liver sections from HFD-fed rats", "experiment": "Oil-Red-O staining of frozen liver sections", "settings": "HFD rats, 2.5 μg/kg daily", "procedure": "At termination of the study of Example 2 the rat livers were embedded using snap freezing in OCT, and then sectioned using a cryomicrotome. Sections were prepared from four groups, KBP-042 in HFD rats, KBP-089 in HFD rats, control HFD rats, and a lean rat comparison.\nThe sections were stained using Oil-Red-O staining. […] The lipid accumulation in pair-fed KBP-089 liver exceeded KBP-089 treated rats with 66.5% (p<0.001) and was not significant different from vehicle (0.6711). Statistical test performed was one-way ANOVA with Dunnet's post test for multiple comparisons. **p<0.01, ***p<0.001."}, "HFD rats": {"system": "HFD rats", "experiment": "Oral glucose tolerance test (OGTT)", "source_text": "Animals were challenged with an oral glucose bolus (2 g/kg) at time=0, and dosed with either KBP-042 or saline at t=−30. FIGS. 12A, 12B and 12C show blood glucose levels during acute OGTT, OGTT after 3 weeks, and OGTT after 7 weeks respectively. FIGS. 12D, 12E and 12F show the area under the curve for acute OGTT, OGTT after 3 weeks, and OGTT after 7 weeks respectively. FIGS. 12G, 12H and 12I show insulin levels during acute OGTT, OGTT after 3 weeks, and OGTT after 7 weeks respectively. FIGS. 12J, 12K and 12L show insulin levels during acute OGTT, OGTT after 3 weeks, and OGTT after 7 weeks respectively expressed as area under the curve. n=10 for all groups except vehicle (n=12). Statistical analysis between groups were performed as a One-way ANOVA followed by Tukey's post-hoc test with the following annotations: *P<0.05, **P<0.01, ***P<0.001 vs. HFD-Vehicle. ††P<0.01, †††P<0.001 vs. Pair-fed 5 μg/kg. ‡‡P<0.01, ‡‡‡P<0.001 vs. Pair-fed 10 μg/kg, Data are expressed as mean±SEM."}, "[2]": {"system": "insulin resistant HFD rats", "experiment": "Hyperinsulinemic-euglycemic clamp (glucose infusion rate)", "procedure": "As liver fat is known to decrease insulin sensitivity, the effect of KBP-042 on insulin sensitivity was considered using the glucose infusion rate (GIR) in the hyperinsulinemic-euglycemic clamp. For this study ND rats were compared to insulin resistant HFD rats and 5 μg/kg KBP-042 treated HFD rats.\nThe results are shown in FIG. 13: A) Glucose infusion rate (GIR) at steady state during hyperinsulinemic-euglycemic clamp when blood glucose was clamped at basal levels after 21 days treatment; B) Body weight at hyperinsulinemic-euglycemic clamp experiment day after 21 days of treatment. Statistical analysis between groups was performed as a One-way ANOVA followed by Tukey's post-hoc test with the following annotations: *P<0.05, **P<0.01, ***P<0.001. Data are expressed as mean±SEM."}}, "data": [{"substance": "AcCSNLSTCVLGKLSQELHKLQTYPRTDVGANAP-NH2 (Ac-CSNLSTCVLGKLSQELHKLQTYPRTDVGANAP-NH2; not fully specified (bridges); cysteine pairing not given here) [KBP-042, calcitonin mimetic with Cys1-Cys7 disulphide bridge]", "values": [{"measurement": "decrease of HFD-induced lipid accumulation in liver compared to vehicle (Oil-Red-O)", "setting": "[1]", "result": 78.3, "unit": "%"}, {"measurement": "blood glucose", "setting": "HFD rats; 30 minutes after subcutaneous administration (t=0), acute", "result": "hyperglycemic effect"}, {"measurement": "glucose tAUC", "setting": "HFD rats; OGTT after 3 weeks, 2.5 μg/kg, 5 μg/kg and 10 μg/kg", "result": "significantly lowered"}, {"measurement": "glucose tolerance (tAUC)", "setting": "HFD rats; OGTT at week 7, 5 μg/kg and 10 μg/kg", "result": "improved glucose tolerance"}, {"measurement": "glucose total area under the curve (tAUC)", "setting": "HFD rats; acute OGTT, 10 μg/kg", "result": "significantly increased"}, {"measurement": "glucose tolerance in OGTT", "setting": "HFD rats; acute dose, 10 μg/kg, compared to HFD-Vehicle", "result": "slightly impaired glucose tolerance"}, {"measurement": "insulin levels during OGTT", "setting": "HFD rats; acute, first 60 minutes after glucose administration", "result": "reduced"}, {"measurement": "insulin levels during OGTT", "setting": "HFD rats; after 3 weeks, all treatment groups except 0.625 μg/kg", "result": "lowered"}, {"measurement": "insulin levels during OGTT", "setting": "HFD rats; week 7, three highest dose groups, first 60 minutes after glucose administration", "result": "drastically reduced"}, {"measurement": "body weight reduction", "setting": "[2]; 5 μg/kg, 21 days, HFD rats", "result": "~18", "unit": "%"}, {"measurement": "increase in glucose infusion rate (GIR) compared to HFD-Vehicle", "setting": "[2]; 5 μg/kg, 21 days, p<0.001", "result": 82, "unit": "%"}, {"measurement": "increase in GIR compared to ND", "setting": "[2]; 5 μg/kg, 21 days, p<0.05", "result": 27, "unit": "%"}, {"measurement": "body weight compared to ND rats", "setting": "[2]; 5 μg/kg, end of study (21 days)", "result": "not significantly different"}, {"measurement": "whole-body insulin sensitivity", "setting": "[2]; hyperinsulinemic-euglycemic clamp", "result": "improved"}]}]}
